Laboratory results: PubChem BioAssay AID330 (DTP/NCI, 2004)
Where “and” joins values, the source holds several entries; their conditions need not be identical. Identical values can stand only once. Toxic doses and inconclusive results are not listed. The calls were made as follows: active = survival T/C of 150% or more; inactive = T/C below 125% in these data.

System: P388 leukemia ip, CD2F1 mice, survival T/C
Experiment: NCI In Vivo Anticancer Drug Screen. Data for tumor model P388 Leukemia (intraperitoneal) in CD2F1 (CDF1) mice
Conditions: endpoint: median survival time, higher = longer survival
Procedure, shortened: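 Mice carrying the transplanted tumor received test compound or vehicle. Survival was recorded in each group, and the value is the treated-group measurement divided by that of the vehicle-treated control group.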

[1] = dose: 50.0 mg/kg/injection, schedule: Q01DX009 (ip), vehicle: Klucel (hydroxypropylcellulose) (HPC)
[2] = dose: 100.0 mg/kg/injection, schedule: Q01DX009 (ip), vehicle: Klucel (hydroxypropylcellulose) (HPC)
[3] = dose: 200.0 mg/kg/injection, schedule: Q01DX009 (ip), vehicle: Klucel (hydroxypropylcellulose) (HPC)
[4] = dose: 100.0 mg/kg/injection, schedule: Q01DX001 (ip), vehicle: Klucel (hydroxypropylcellulose) (HPC)
[5] = dose: 200.0 mg/kg/injection, schedule: Q01DX001 (ip), vehicle: Klucel (hydroxypropylcellulose) (HPC)
[6] = dose: 50.0 mg/kg/injection, schedule: Q01DX005 (ip), vehicle: Klucel (hydroxypropylcellulose) (HPC)
[7] = dose: 100.0 mg/kg/injection, schedule: Q01DX005 (ip), vehicle: Klucel (hydroxypropylcellulose) (HPC)
[8] = dose: 200.0 mg/kg/injection, schedule: Q01DX005 (ip), vehicle: Klucel (hydroxypropylcellulose) (HPC)
[9] = dose: 50.0 mg/kg/injection, schedule: Q01DX005 (ip), vehicle: saline with Tween-80
[10] = dose: 100.0 mg/kg/injection, schedule: Q01DX005 (ip), vehicle: saline with Tween-80
[11] = dose: 200.0 mg/kg/injection, schedule: Q01DX005 (ip), vehicle: saline with Tween-80
[12] = dose: 100.0 mg/kg/injection, schedule: Q04DX003 (ip), vehicle: saline with Tween-80
[13] = dose: 200.0 mg/kg/injection, schedule: Q04DX003 (ip), vehicle: saline with Tween-80
[14] = dose: 400.0 mg/kg/injection, schedule: Q04DX003 (ip), vehicle: saline with Tween-80
[15] = dose: 50.0 mg/kg/injection, schedule: Q01DX009 (ip), vehicle: saline with Tween-80
[16] = dose: 100.0 mg/kg/injection, schedule: Q01DX009 (ip), vehicle: saline with Tween-80
[17] = dose: 6.25 mg/kg/injection, schedule: Q04DX002 (ip), vehicle: saline
[18] = dose: 12.5 mg/kg/injection, schedule: Q04DX002 (ip), vehicle: saline
[19] = dose: 25.0 mg/kg/injection, schedule: Q04DX002 (ip), vehicle: saline

Measured: T/C

NC(=O)c1ccccc1Sc1ccccc1C(N)=O
inactive: dose: 100.0 mg/kg/injection, schedule: Q01DX001 (ip), vehicle: saline with Tween-80 100 % of control | dose: 200.0 mg/kg/injection, schedule: Q01DX001 (ip), vehicle: saline with Tween-80 100 % of control | dose: 400.0 mg/kg/injection, schedule: Q01DX001 (ip), vehicle: saline with Tween-80 100 % of control

CC1=NCc2nnn(Cc3ccccc3)c2N1
inactive: [1] 100 % of control | [2] 95 % of control | [3] 103 % of control

CCOC(=O)C(C#N)C=Nc1cccc(N(C)C)c1 (configuration not stated)
inactive: [1] 108 % of control | [2] 117 % of control | [3] 104 % of control

COc1cc2c(cc1OC)CN1CCc3ccsc3C1C2 (configuration not stated)
inactive: dose: 50.0 mg/kg/injection, schedule: Q01DX001 (ip), vehicle: Klucel (hydroxypropylcellulose) (HPC) 104 % of control | [4] 101 % of control | [5] 97 % of control

CCC(C)NS(=O)(=O)c1ccccc1C(=O)OC (configuration not stated)
inactive: [6] 99 % of control | [7] 99 % of control | [8] 97 % of control

CNC(=S)N/N=C1/CCOC(C)/C1=N\NC(=S)NC (configuration not stated)
inactive: [9] 93 % of control | [10] 95 % of control | [11] 92 % of control

Nc1c(C(=O)NCc2ccccc2)c2nc3c(C(=O)NCc4ccccc4)ccc(Br)c3oc-2c(Br)c1=O
inactive: [9] 98 % of control | [10] 86 % of control | [11] 89 % of control

COC(=O)C[C@@]1(C(=O)OC)[C@H](C(=O)OC)[C@@H](C(=O)OC)N(C(C)=O)N1C
inactive: [6] 105 % of control | [7] 105 % of control | dose: 100.0 mg/kg/injection, schedule: Q04DX002 (ip), vehicle: Klucel (hydroxypropylcellulose) (HPC) 104 % of control | [8] 103 % of control | dose: 200.0 mg/kg/injection, schedule: Q04DX002 (ip), vehicle: Klucel (hydroxypropylcellulose) (HPC) 95 % of control | dose: 400.0 mg/kg/injection, schedule: Q04DX002 (ip), vehicle: Klucel (hydroxypropylcellulose) (HPC) 103 % of control

COc1cc2cnc(-c3ccccc3)cc2cc1OC
inactive: dose: 100.0 mg/kg/injection, schedule: Q04DX003 (ip), vehicle: suspension in saline 101 % of control | dose: 200.0 mg/kg/injection, schedule: Q04DX003 (ip), vehicle: suspension in saline 93 % of control | dose: 400.0 mg/kg/injection, schedule: Q04DX003 (ip), vehicle: suspension in saline 93 % of control

Cc1ccc(NC(=S)SCc2ccco2)cc1Cl
inactive: dose: 50.0 mg/kg/injection, schedule: Q01DX009 (ip), vehicle: suspension in saline 100 % of control | dose: 100.0 mg/kg/injection, schedule: Q01DX009 (ip), vehicle: suspension in saline 103 % of control | dose: 200.0 mg/kg/injection, schedule: Q01DX009 (ip), vehicle: suspension in saline 109 % of control

CC(=O)Nc1ccc(Br)c(NC(C)=O)n1
inactive: [12] 104 % of control | [13] 104 % of control | [14] 109 % of control

CC(C(=O)c1ccc(Cl)cc1)C1=NC2NN(c3ccccc3)C(=O)C2=C1C(C)C(=O)c1ccc(Cl)cc1 (configuration not stated)
inactive: dose: 60.0 mg/kg/injection, schedule: Q01DX005 (ip), vehicle: saline with Tween-80 99 % of control | dose: 120.0 mg/kg/injection, schedule: Q01DX005 (ip), vehicle: saline with Tween-80 101 % of control | dose: 240.0 mg/kg/injection, schedule: Q01DX005 (ip), vehicle: saline with Tween-80 100 % of control

CC1=NN(C(=O)c2cccnc2)C(=O)C1N=Nc1ccc(S(=O)(=O)Nc2nccs2)cc1 (configuration not stated)
inactive: [12] 101 % of control | [13] 99 % of control | [14] 95 % of control

CC(=O)OCC1OC(n2ncc(=S)[nH]c2=O)C2OC(C)(C)OC12 (configuration not stated)
inactive: [15] 92 % of control | [16] 95 % of control | dose: 200.0 mg/kg/injection, schedule: Q01DX009 (ip), vehicle: saline with Tween-80 97 % of control

C1=C(c2ccccc2)OC(c2ccccc2)=C[P+]1(c1ccccc1)c1ccccc1
inactive: dose: 1.56 mg/kg/injection, schedule: Q01DX005 (ip), vehicle: saline with Tween-80 105 % of control | dose: 3.12 mg/kg/injection, schedule: Q01DX005 (ip), vehicle: saline with Tween-80 120 % of control | dose: 6.25 mg/kg/injection, schedule: Q01DX005 (ip), vehicle: saline with Tween-80 97 % of control

CCN=C1SC2C(=O)N(C)C(S1)C(=O)N2C
inactive: [17] 100 % of control | [18] 103 % of control | [19] 105 % of control

N#CCCSC(=S)N1CCCC1=O
inactive: [9] 103 % of control | [10] 104 % of control | [11] 114 % of control

O=C1CC2(CCCCC2)CC(=O)N1c1ccc(O)c(CN2CCCCC2)c1
inactive: [1] 104 % of control | [2] 108 % of control | [3] 102 % of control

COc1cccc(C)c1C(O)CC1CCCN1 (configuration not stated)
inactive: [1] 106 % of control | [2] 102 % of control

CN1CCCC1=NCCN=C1CCCN1C
inactive: dose: 50.0 mg/kg/injection, schedule: Q01DX005 (ip), vehicle: saline 117 % of control | dose: 100.0 mg/kg/injection, schedule: Q01DX005 (ip), vehicle: saline 99 % of control | dose: 200.0 mg/kg/injection, schedule: Q01DX005 (ip), vehicle: saline 98 % of control

CC(C)(C=O)COC1OCN(C(C)(C)C)CC1(C)C (configuration not stated)
inactive: [15] 104 % of control | [16] 122 % of control

NNc1nn2cnnc2c2ccccc12
inactive: [17] 100 % of control and 96 % of control | [18] 98 % of control and 99 % of control and 96 % of control | [19] 100 % of control and 122 % of control and 97 % of control | dose: 50.0 mg/kg/injection, schedule: Q04DX002 (ip), vehicle: saline 101 % of control and 104 % of control and 94 % of control | dose: 400.0 mg/kg/injection, schedule: Q04DX002 (ip), vehicle: saline 88 % of control

O=Cc1c(Cl)n(C(=O)c2ccc(F)cc2)c2ccccc12
inactive: [4] 97 % of control | [5] 113 % of control | dose: 400.0 mg/kg/injection, schedule: Q01DX001 (ip), vehicle: Klucel (hydroxypropylcellulose) (HPC) 96 % of control
